Reference: PMC8387043, “Host Poly(A) Polymerases PAPD5 and PAPD7 Provide Two Layers of Protection That Ensure the Integrity and Stability of Hepatitis B Virus RNA” (Journal of Virology, 2021)
Where two headings read alike, the source gives them in different places.

Key:
HBsAg = HBsAg inhibition in adenovirus-HBsAg-transduced HepG2-NTCP WT and KO clones; type: cell-based, hepatitis B virus; conditions: for EC50: HBsAg, read-out: Adeno infection EC50
recombinant human PAPD5 = target: T1, recombinant human PAPD5 (Homo sapiens, UniProt Q8NDF8); test: PAPD5 ATP depletion assay; type: biochemical; conditions: truncated recombinant human PAPD5, ATP depletion
T1 construct: PAPD5 (amino acids 186 to 518; XM_011523275); 10xHis (N); Flag (N); TEV cleavage site (N); host or cells: E. coli BL21(DE3), vector pET-24a(+)
Experimental: (§1) Molecular cloning, expression, and purification of the recombinant human PAPD5 and PAPD7 proteins were performed at Xtal BioStructures (MA, USA). PAPD5 (amino acids 186 to 518; GenBank accession no. XM_011523275) and PAPD7 (amino acids 226 to 558; GenBank accession no. NM_006999.6) genes comprising of nucleotidyltransferase and PAP-associated domains were codon optimized, synthesized, and inserted in the expression vector pET-24a(+) for E. coli expression with 10×His-Flag-tobacco etch virus (TEV) tags at the N terminus. The pET-24a(+) constructs were transformed into E. coli-competent cells BL21(DE3). […] Expression of protein was induced for 16 h with 0.2 mM IPTG (isopropyl-β-D-thiogalactopyranoside) at 18°C. […] Roche). Cell suspension was sonicated 8 × 20 s at 27 to 30 W (power level, 3.5 to 4.0) with 40-s breaks between each pulse. Lysate was cleared by centrifugation in a 50-ml conical tube at 20,000 × g for 30 min (Fiberlite F13-14 × 50cy rotor in a Sorvall RC6 centrifuge). Supernatant was incubated with Ni-charged MagBeads (GenScript; catalog no. […] Bound proteins were washed with 50 ml binding buffer and eluted in elution buffer containing a gradient of imidazole ranging from 5 to 500 mM. Peak fractions were pooled and stored in 50% glycerol at -80°C. Reactions were carried out in duplicate in 96-well low-profile, skirted, white plates (catalog no. AB0800WL; […] The reaction mixtures were incubated at room temperature for 3 h, and ATP depletion was monitored by using Kinase-Glo luminescent kinase kit following the manufacturer's instructions (catalog no. V6712; Promega, WI, USA).

PAPD5 = test system: PAPD5; design: method as in PMID 31801065; conditions: read-out: PAPD5 IC50 previously reported; cited from earlier work
recombinant human PAPD7 = target: T2, recombinant human PAPD7 (Homo sapiens, UniProt Q5XG87); test: PAPD7 ATP depletion assay; type: biochemical
T2 construct: PAPD7 (amino acids 226 to 558; NM_006999.6); 10xHis (N); Flag (N); TEV cleavage site (N); host or cells: E. coli BL21(DE3), vector pET-24a(+)
Experimental: as §1

HBV [1] = test: HBV replication intermediates and viral proteins in HepG2.2.15 cells (Northern, Western, particle gel, Southern); type: cell-based, hepatitis B virus; conditions: HepG2.2.15, 6 days; ETV, GLS-4, cmpdA 1 μM; AB-452 70 nM
Experimental: Total cellular RNA was extracted from HepG2.2.15 or HepAD38 cells treated with or without antiviral compounds using TRIzol reagent according to the manufacturer's directions (Thermo Fisher Scientific, Waltham, MA). Northern blotting was performed as described previously ([1]). Briefly, total RNA was separated in a 1.5% agarose gel and transferred onto an Amersham Hybond-XL membrane (product no. GERPN303S; GE Healthcare, IL, USA). Membranes were probed with an [α-^32P]UTP (PerkinElmer, CT, USA)-labeled minus strand-specific full-length HBV riboprobe (3.2 kb) transcribed from plasmid pSP65_HBV(+) DNA. Membranes were exposed to a phosphoimager screen, and the hybridization signals were quantified using Image Studio software (Li-Cor Biosciences, NE, USA).
Total intracellular viral core-associated DNA was extracted as described previously ([1]) and analyzed by Southern blotting hybridization with an [α-^32P]UTP-labeled full-length HBV riboprobe (3.2 kb) that specifically hybridized to minus strand of viral DNA. Membranes were exposed to a phosphoimager screen, and the hybridization signals were quantified using Image Studio software.
HepG2.2.15 or HepAD38 cells cultured in a 12-well plate were lysed with 200 μl Laemmli sample buffer (Bio-Rad, PA, USA) supplemented with 2.5% 2-mercaptoethanol (Sigma-Aldrich, MO, USA). […]

HBV PRE = HBV PRE cis-element reporter plasmids (HBsAg or Gluc) transfected in Huh-7 cells; conditions: Hepatitis B virus
HBV [2] = test: HBsAg inhibition in PLC/PRF/5 cells; type: cell-based; conditions: Hepatitis B virus
Experimental: AB-452 and RG7834 both belong to the dihydroquinolizinones chemical class. The antiviral activities of AB-452 and its diastereomer ARB-169451 were evaluated using multiple in vitro HBV replication models, including HepG2.2.15 cells (which constitutively express HBV through the integrated viral genome), PLC/PRF/5 cells (a patient-derived hepatocellular carcinoma cell line only expressing HBsAg), and HBV-infected HepG2-NTCP cells or primary human hepatocytes (PHHs) in which viral replication was dependent on cccDNA transcription (Table 1).
HepG2.2.15, HepAD38, and PLC/PRF/5 cells were cultured in Dulbecco’s modified Eagle medium (DMEM)/F12 medium (Corning, NY, USA), supplemented with 10% fetal bovine serum (Gemini, CA, USA), 100 U/ml penicillin, and 100 μg/ml streptomycin. Huh-7 cells (Creative Bioarray, NY, USA) were cultured in RPMI 1640 medium (Basel, Switzerland) containing 10% fetal bovine serum, 100 U/ml penicillin, and 100 μg/ml streptomycin. HepG2-hNTCP-C4 cells were cultured in DMEM medium (Gibco, MA, USA) containing 10% fetal bovine serum and 10 mM HEPES (Gibco).

HBV [3] = test: Antiviral assay in HepG2.2.15 cells (HBsAg/HBeAg CLIA, secreted HBV DNA qPCR); type: cell-based, hepatitis B virus

T1 sequence (Q8NDF8 106-438 limits assumed): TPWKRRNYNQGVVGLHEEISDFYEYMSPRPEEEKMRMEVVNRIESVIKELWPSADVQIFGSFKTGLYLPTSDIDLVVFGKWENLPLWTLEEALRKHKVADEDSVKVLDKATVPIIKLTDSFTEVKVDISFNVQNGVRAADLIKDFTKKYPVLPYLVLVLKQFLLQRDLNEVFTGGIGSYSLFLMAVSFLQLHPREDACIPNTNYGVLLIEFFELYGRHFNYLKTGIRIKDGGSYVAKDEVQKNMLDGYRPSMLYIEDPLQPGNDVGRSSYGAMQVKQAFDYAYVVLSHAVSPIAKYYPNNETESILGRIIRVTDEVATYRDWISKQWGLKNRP
T2 sequence (Q5XG87 226-558): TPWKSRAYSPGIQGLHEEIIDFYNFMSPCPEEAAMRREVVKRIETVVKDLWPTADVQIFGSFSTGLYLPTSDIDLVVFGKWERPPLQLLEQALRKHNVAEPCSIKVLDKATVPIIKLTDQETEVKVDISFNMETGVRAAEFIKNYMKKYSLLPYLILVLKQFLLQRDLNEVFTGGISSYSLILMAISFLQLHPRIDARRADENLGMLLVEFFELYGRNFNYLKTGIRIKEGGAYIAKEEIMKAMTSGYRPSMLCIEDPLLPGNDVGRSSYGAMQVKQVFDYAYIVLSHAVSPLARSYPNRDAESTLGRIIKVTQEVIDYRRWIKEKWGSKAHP

With `COCCCOc1cc2c(cc1OC)-c1cc(=O)c(C(=O)O)cn1[C@H](C(C)C)C2` [RG7834, reference compound] the “Adeno infection FC vs WT” value (HBsAg; P5_KO (T3-4)) was 10.7, the EC50 (HBsAg; P5_KO (T3-4)) was 126 ± 74.7 nM and the “Adeno infection FC vs WT” value (HBsAg; P5_KO (T3-15)) was 7.3. For the same molecule, the EC50 (HBsAg; P5_KO (T3-15)) was 85.7 ± 59.8 nM, the “Adeno infection FC vs WT” value (HBsAg; P7_KO (T2-8)) was 2.0 and the EC50 (HBsAg; P7_KO (T2-8)) was 23.7 ± 15.2 nM. For the same molecule, the “Adeno infection FC vs WT” value (HBsAg; P7_KO (T2-22)) was 0.9, the EC50 (HBsAg; P7_KO (T2-22)) was 10.8 ± 2.1 nM and the “Adeno infection FC vs WT” value (HBsAg; WT (parent)) was 1. The EC50 (HBsAg; WT (parent) HepG2-NTCP) was 11.8 ± 9.6 nM, the IC50 (recombinant human PAPD5) was 0.167 µM and the IC50 (PAPD5) was 1.3 nM. The IC50 (recombinant human PAPD7) was 1090 nM.
With `C=C1[C@H](CO)[C@@H](O)C[C@@H]1n1cnc2c(=O)[nH]c(N)nc21` [ETV, entecavir, reference compound] the “Effect on HBV replication intermediates and viral proteins” value (HBV [1]) was “strongly inhibited HBV DNA replication but did not reduce the production of intracellular HBV RNA, core protein levels, or capsid assembly”.
In the case of `COCCCOc1cc2c(nc1OC)-c1cc(=O)c(C(=O)O)cn1[C@@H](C(C)C)C2` [ARB-169451], the EC50 (HBV PRE; 120 h, read-out: EC50, Gluc_dHBx (Gluc activity)) is reported as greater than 100 nM, the EC50 (HBV PRE; 120 h, read-out: EC50, H133_Gluc (Gluc activity)) is reported as greater than 100 nM and the EC50 (HBV PRE; Huh-7, 120 h, read-out: EC50, Gluc_rcSLα (Gluc activity)) is reported as greater than 100 nM. The EC50 (HBV PRE; Huh-7, 120 h, read-out: EC50, H133 (HBsAg)) was greater than 100 nM, the EC50 (HBV PRE; Huh-7, 120 h, read-out: EC50, H133_dLa (HBsAg)) was greater than 100 nM and the EC50 (HBV PRE; Huh-7, 120 h, read-out: EC50, H133_dSLα (HBsAg)) was greater than 100 nM. For the same molecule, the EC50 (HBV [2]) was greater than 100 nM, the “fold weaker toward HBsAg inhibition than AB-452” value (HBV [3]) was “more than 1,000 fold” and the EC50 (HBV [3]; Hepatitis B virus, HepG2.2.15 cells, read-out: HBsAg EC50) was 2230 nM. For the same molecule, the IC50 (recombinant human PAPD5) was 27 µM and the IC50 (recombinant human PAPD7) was greater than 50000 nM.
